In ChEMBL document CHEMBL6103622 (J Med Chem, 2025):
Calls of active or inactive are those of the source. No cut-off for these calls is given here.

Key:
[1] = tested on: Colorectal cancer organoid; test: Antitumor activity against patient derived CRC organoids cocultured with IL-4/13 stimulated M2 macrophages assessed as lytic death state at 10 to 100 nM incubated for 72 hrs; format: functional, tissue-based; conditions: Homo sapiens, Colorectum, dose 10-100 nM
MC-38 [2] = test: Induction of apoptosis in mouse MC38 cells cocultured with condition medium of M2 macrophages assessed as early apoptotic cells at 100 nM by Annexin V/PI staining based flow cytometric analysis (reference value: 3.16 %); format: functional
BMDM [3] = test: Induction of repolarization of M2 like macrophage into M1 phenotype in female C57BL/6 mouse BMDM cells assessed as increase in number of M1 macrophages by measuring increase in Nos2 expression at 10 to 100 nM stimulated with mouse IL4/IL-13 for 24 hrs followed by compound addition and measured after 24 hrs by immunofluorescence analysis; format: functional, cell-based; conditions: dose 10-100 nM
MC-38 [4] = test: Induction of apoptosis in mouse MC38 cells assessed as late apoptotic cells at 10 nM by Annexin V/PI staining based flow cytometric analysis (reference value: 0.85 %); format: functional
[5] = target: T1, Macrophage colony-stimulating factor 1 receptor (Mus musculus) (UniProt P09581); test: Inhibition of CSF-1R signaling pathway activation in female C57BL/6 mouse BMDM cells assessed as reduction in ERK phosphorylation preincubated with compounds for 4 hrs followed by M-CSF stimulation and measured after 30 mins by Western blot analysis; format: cell-based; conditions: dose 10-100 nM, time 4.5 hrs
T1 sequence (whole entry): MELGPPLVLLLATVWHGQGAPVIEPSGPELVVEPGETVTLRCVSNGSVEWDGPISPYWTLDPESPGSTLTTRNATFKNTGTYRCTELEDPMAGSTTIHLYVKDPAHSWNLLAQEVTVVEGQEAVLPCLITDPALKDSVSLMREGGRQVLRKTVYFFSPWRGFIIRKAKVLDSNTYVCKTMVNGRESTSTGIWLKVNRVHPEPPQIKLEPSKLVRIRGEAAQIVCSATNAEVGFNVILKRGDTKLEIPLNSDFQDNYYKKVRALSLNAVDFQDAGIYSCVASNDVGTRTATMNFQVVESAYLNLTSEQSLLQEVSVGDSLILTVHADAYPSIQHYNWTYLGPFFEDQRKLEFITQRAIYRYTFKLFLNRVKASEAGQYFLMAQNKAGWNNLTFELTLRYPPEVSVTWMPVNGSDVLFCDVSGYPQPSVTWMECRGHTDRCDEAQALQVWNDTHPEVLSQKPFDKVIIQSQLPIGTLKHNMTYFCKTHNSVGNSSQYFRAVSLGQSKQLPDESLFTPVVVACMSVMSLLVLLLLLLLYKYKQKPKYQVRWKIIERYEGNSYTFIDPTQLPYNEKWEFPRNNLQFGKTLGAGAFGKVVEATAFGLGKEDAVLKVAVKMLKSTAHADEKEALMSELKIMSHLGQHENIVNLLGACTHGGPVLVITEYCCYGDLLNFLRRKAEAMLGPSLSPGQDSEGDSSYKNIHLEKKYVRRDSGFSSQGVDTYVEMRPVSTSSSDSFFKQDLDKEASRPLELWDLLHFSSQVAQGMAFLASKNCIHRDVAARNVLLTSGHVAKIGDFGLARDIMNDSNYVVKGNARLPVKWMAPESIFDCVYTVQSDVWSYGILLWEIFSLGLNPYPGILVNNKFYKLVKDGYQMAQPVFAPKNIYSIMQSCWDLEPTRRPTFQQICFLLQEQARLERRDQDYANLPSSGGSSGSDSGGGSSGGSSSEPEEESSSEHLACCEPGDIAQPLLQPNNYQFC

BMDM [6] = test: Induction of repolarization of M2 like macrophage into M1 phenotype in female C57BL/6 mouse BMDM cells assessed as decrease in Chil3l mRNA expression at 10 to 100 nM stimulated with mouse IL4/IL-13 for 24 hrs followed by compound addition and measured after 24 hrs by qPCR analysis; format: functional, cell-based; conditions: dose 10-100 nM
MC-38 [7] = test: Induction of apoptosis in mouse MC38 cells assessed as late apoptotic cells at 100 nM by Annexin V/PI staining based flow cytometric analysis (reference value: 0.85 %); format: functional
[8] = target: T1, Macrophage colony-stimulating factor 1 receptor (Mus musculus); test: Inhibition of CSF-1R signaling pathway activation in female C57BL/6 mouse BMDM cells assessed as reduction in STAT3 phosphorylation preincubated with compounds for 4 hrs followed by M-CSF stimulation and measured after 30 mins by Western blot analysis; format: cell-based; conditions: dose 10-100 nM, time 4.5 hrs
BMDM [9] = test: Induction of repolarization of M2 like macrophage into M1 phenotype in female C57BL/6 mouse BMDM cells assessed as decrease in Arg1 mRNA expression at 10 to 100 nM stimulated with mouse IL4/IL-13 for 24 hrs followed by compound addition and measured after 24 hrs by qPCR analysis; format: functional, cell-based; conditions: dose 10-100 nM
MC-38 [10] = test: Antitumor activity against mouse MC38 cells allografted in C57BL/6 mouse model assessed as upregulation of Nos2 mRNA expression in tumor at 10 to 20 mg/kg, ip administered once daily for 14 days by qPCR analysis; format: functional, organism-based; conditions: dose 10-20 mg/kg, time 14.0 day
MC-38 [11] = test: Induction of apoptosis in mouse MC38 cells assessed as late apoptotic cells at 30 nM by Annexin V/PI staining based flow cytometric analysis (reference value: 0.85 %); format: functional
[12] = AUC (0 to t) in Sprague-Dawley rat at 1 mg/kg, iv; format: ADME, organism-based; conditions: in vivo
[13] = target: T1, Macrophage colony-stimulating factor 1 receptor (Mus musculus); test: Inhibition of CSF-1R signaling pathway activation in female C57BL/6 mouse BMDM cells assessed as reduction in CSF-1R phosphorylation preincubated with compounds for 4 hrs followed by M-CSF stimulation and measured after 30 mins by Western blot analysis; format: cell-based; conditions: dose 10-100 nM, time 4.5 hrs
[14] = target: Macrophage colony-stimulating factor 1 receptor (Homo sapiens, UniProt P07333); test: Binding affinity to recombinant CSF-1R (unknown origin) assessed as equilibrium dissociation constant by SPR analysis
MC-38 [15] = test: Induction of apoptosis in mouse MC38 cells cocultured with condition medium of M2 macrophages assessed as early apoptotic cells at 10 nM by Annexin V/PI staining based flow cytometric analysis (reference value: 3.16 %); format: functional
[16] = target: T1, Macrophage colony-stimulating factor 1 receptor (Mus musculus); test: Inhibition of CSF-1R signaling pathway activation in female C57BL/6 mouse BMDM cells assessed as reduction in CSF-1R phosphorylation at Tyr723 residue at 100 nM preincubated with compounds for 4 hrs followed by M-CSF stimulation and measured after 30 mins by Western blot analysis; format: cell-based; conditions: time 4.5 hrs
[17] = MRT (0 to t) in Sprague-Dawley rat at 1 mg/kg, iv; format: ADME, organism-based; conditions: in vivo
MC-38 [18] = test: Antitumor activity against mouse MC38 cells allografted in C57BL/6 mouse model assessed as upregulation of Il6 mRNA expression in tumor at 10 to 20 mg/kg, ip administered once daily for 14 days by qPCR analysis; format: functional, organism-based; conditions: dose 10-20 mg/kg, time 14.0 day
[19] = tested on: Colorectal cancer organoid; test: Antitumor activity against patient derived CRC organoids cocultured with IL-4/13 stimulated M2 macrophages assessed as reduction in number of organoids at 10 to 100 nM incubated for 72 hrs; format: functional, tissue-based; conditions: Homo sapiens, Colorectum, dose 10-100 nM
[20] = Toxicity in C57BL/6 mouse model allografted with mouse MC38 cells assessed as body weight loss at 10 to 20 mg/kg, ip administered once daily for 14 days; format: organism-based; conditions: in vivo, 336 h, dose 10-20 mg/kg, time 14 day
MC-38 [21] = test: Induction of apoptosis in mouse MC38 cells assessed as early apoptotic cells at 10 nM by Annexin V/PI staining based flow cytometric analysis (reference value: 1.91 %); format: functional

Macrophage colony-stimulating factor 1 receptor, sequence (P07333 whole entry): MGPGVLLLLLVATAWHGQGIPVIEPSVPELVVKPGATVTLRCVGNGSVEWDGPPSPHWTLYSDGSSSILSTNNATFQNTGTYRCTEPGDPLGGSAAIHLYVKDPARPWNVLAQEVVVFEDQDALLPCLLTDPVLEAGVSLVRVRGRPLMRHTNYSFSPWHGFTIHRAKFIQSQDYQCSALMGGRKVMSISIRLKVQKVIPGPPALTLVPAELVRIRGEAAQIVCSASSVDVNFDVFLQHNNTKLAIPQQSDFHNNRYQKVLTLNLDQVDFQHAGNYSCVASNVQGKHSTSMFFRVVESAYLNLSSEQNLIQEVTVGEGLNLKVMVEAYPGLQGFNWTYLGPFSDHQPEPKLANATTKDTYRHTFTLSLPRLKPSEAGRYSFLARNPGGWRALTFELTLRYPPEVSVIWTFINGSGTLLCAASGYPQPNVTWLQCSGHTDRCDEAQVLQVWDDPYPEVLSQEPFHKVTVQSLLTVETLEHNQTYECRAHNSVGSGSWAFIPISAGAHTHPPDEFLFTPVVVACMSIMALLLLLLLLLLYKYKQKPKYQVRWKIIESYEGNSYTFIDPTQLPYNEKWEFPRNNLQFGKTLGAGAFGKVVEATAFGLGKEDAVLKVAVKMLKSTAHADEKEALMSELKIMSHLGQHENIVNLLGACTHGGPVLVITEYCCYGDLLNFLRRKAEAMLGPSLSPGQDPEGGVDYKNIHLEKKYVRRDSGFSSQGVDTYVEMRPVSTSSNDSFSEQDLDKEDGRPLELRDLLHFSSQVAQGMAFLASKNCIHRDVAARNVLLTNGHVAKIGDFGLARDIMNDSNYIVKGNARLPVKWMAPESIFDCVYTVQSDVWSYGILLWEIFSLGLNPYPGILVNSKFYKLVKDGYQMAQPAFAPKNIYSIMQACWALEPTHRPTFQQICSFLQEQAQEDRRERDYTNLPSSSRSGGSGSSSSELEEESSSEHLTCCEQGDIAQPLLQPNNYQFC

SMILES: Cc1nc(NC(=O)N[C@@H]2CCCC[C@H]2O)ccc1Oc1c[nH]c2ncc(Cl)cc12
- Activity [1]: Active
- Activity (MC-38 [2]): 19.91%
- Activity (BMDM [3]): Active
- Activity (MC-38 [4]): 0.72%
- inhibition [5]: Dose-dependent-effect
- Activity (BMDM [6]): Active
- Activity (MC-38 [7]): 1.01%
- inhibition [8]: Dose-dependent-effect
- Activity (BMDM [9]): Active
- Activity (MC-38 [10]): Active
- Activity (MC-38 [11]): 0.87%
- AUC(0-t) [12]: 526 ng·h/mL
- inhibition [13]: Dose-dependent-effect
- Kd [14]: 2.96 nM
- Activity (MC-38 [15]): 6.15%
- inhibition [16]: Active
- MRT last [17]: 1.6 h
- Activity (MC-38 [18]): Active
- Activity [19]: Active
- Activity [20]: Non-toxic
- Activity (MC-38 [21]): 1.96%
